# From patent US20060069132A1, “Azolecarboxamide herbicides” (priority 2004, published 2006)
# Key:
# rice [1] = test: Test B flooded paddy test; assay type: in vivo, Oryza sativa; details: 1000 g ai/ha, scale 0 to 100 (0 no effect, 100 complete control)
# Method in brief: (§1)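 After treating 2-leaf paddy plants or 2–18 cm postemergence plants (1 to 4 leaves) with formulated chemical, researchers kept them in a greenhouse for 13–15 days. Effects were judged visually versus controls: 0 indicates none, 100 total control.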
# barnyardgrass [2] = test: Test C flooded paddy test; assay type: in vivo, Echinochloa crus-galli
# Method in brief: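 After a postemergence application at 1 to 4 leaves (plants 2–18 cm high), or at 2 leaves for barnyardgrass in flooded paddy, plants stayed in the greenhouse for 12 to 14 days. Damage was then judged visually relative to control plants, with 100 indicating complete control.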
# [3] = tested on: small flower umbrella sedge; test: Test B flooded paddy test; assay type: in vivo, Cyperus difformis; details: 1000 g ai/ha, scale 0 to 100 (0 no effect, 100 complete control)
# Method in brief: as §1
# [4] = tested on: smallflower umbrella sedge; test: Test C flooded paddy test; assay type: in vivo, Cyperus difformis
# redroot pigweed = test: Test A pre-/postemergence herbicide test; assay type: in vivo, Amaranthus retroflexus
# Method in brief: (§2)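 Visual injury scores on a 0–100 scale (100 = complete control) taken about ten days post-treatment in greenhouse against untreated controls; dash means no result. Treatments: preemergence soil spray and postemergence spray to runoff on one- to two-leaf plants 2 to 10 cm tall, surfactant-containing formulation.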
# barnyardgrass [5] = test: Test A pre-/postemergence herbicide test; assay type: in vivo, Echinochloa crus-galli
# Method in brief: as §2
# giant foxtail = test: Test A pre-/postemergence herbicide test; assay type: in vivo, Setaria faberi
# Method in brief: as §2
# velvetleaf = test: Test A pre-/postemergence herbicide test; assay type: in vivo, Abutilon theophrasti
# Method in brief: as §2
# ducksalad [6] = test: Test C flooded paddy test; assay type: in vivo, Heteranthera limosa
# rice [7] = test: Test C flooded paddy test; assay type: in vivo, Oryza sativa
# Method in brief: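 Postemergence sprays applied to plants 2 to 18 cm tall (1- to 4-leaf stage); paddy species grown to 2-leaf stage under flooding. After 12 to 14 days in greenhouse, visual rating versus untreated controls on 0–100 scale (0 no effect, 100 complete control).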
# barnyardgrass [8] = test: Test B flooded paddy test; assay type: in vivo, Echinochloa crus-galli; details: 1000 g ai/ha, scale 0 to 100 (0 no effect, 100 complete control)
# Method in brief: as §1
# morningglory = test: Test A pre-/postemergence herbicide test; assay type: in vivo, Ipomoea spp.
# Method in brief: as §2
# large crabgrass = test: Test A pre-/postemergence herbicide test; assay type: in vivo, Digitaria sanguinalis
# Method in brief: as §2
# ducksalad [9] = test: Test B flooded paddy test; assay type: in vivo, Heteranthera limosa; details: 1000 g ai/ha, scale 0 to 100 (0 no effect, 100 complete control)
# Method in brief: as §1
# [10] = 125 g ai/ha, scale 0 to 100 (0 no effect, 100 complete control)
# [11] = 250 g ai/ha, scale of 0 to 100, 0 is no effect, 100 is complete control
# [12] = 500 g ai/ha, visual rating after 12 to 14 days, scale 0 to 100 (0 no effect, 100 complete control)
# [13] = Postemergence, 500 g ai/ha, 0 to 100 scale, 0 no effect, 100 complete control
# [14] = Postemergence, 2000 g ai/ha, 0 to 100 scale, 0 no effect, 100 complete control
# [15] = Preemergence, 2000 g ai/ha, visual rating, 0 to 100 scale (0 no effect, 100 complete control)
# [16] = preemergence, 500 g ai/ha, visual injury, 0 to 100 scale (0 no effect, 100 complete control)
smiles,measurement,setting,value
CCOC(=O)c1cncc(NC(=O)c2cc(C(C)(C)C)nn2CC)c1 [Compound 255],Rice plant response rating,rice [1],70
same,Barnyardgrass plant response rating,"barnyardgrass [2]; 62 g ai/ha, scale 0 to 100 (0 no effect, 100 complete control)",0
same,Barnyardgrass plant response rating,barnyardgrass [2]; [10],10
same,Barnyardgrass plant response rating,barnyardgrass [2]; [11],25
same,"Plant response rating, Barnyardgrass",barnyardgrass [2]; [12],35
same,"Sedge, Umbrella plant response rating",[3],80
same,"Sedge, Umbrella plant response rating","[4]; 62 g ai/ha, scale 0 to 100",0
same,"Sedge, Umbrella plant response rating",[4]; [10],20
same,"Sedge, Umbrella plant response rating",[4]; [11],35
same,"Plant response rating, Sedge, Umbrella",[4]; [12],45
same,Pigweed plant response rating,redroot pigweed; [13],70
same,"Plant response rating, Pigweed",redroot pigweed; [14],100
same,Pigweed plant response rating,redroot pigweed; [15],100
same,Pigweed plant response rating,redroot pigweed; [16],90
same,Barnyardgrass plant response rating,barnyardgrass [5]; [13],40
same,"Plant response rating, Barnyardgrass",barnyardgrass [5]; [14],70
same,Barnyardgrass plant response rating,barnyardgrass [5]; [15],75
same,Barnyardgrass plant response rating,barnyardgrass [5]; [16],55
same,"Foxtail, Giant plant response rating",giant foxtail; [13],30
same,"Plant response rating, Foxtail, Giant",giant foxtail; [14],55
same,"Foxtail, Giant plant response rating",giant foxtail; [15],60
same,"Foxtail, Giant plant response rating",giant foxtail; [16],45
same,Velvetleaf plant response rating,velvetleaf; [13],35
same,"Plant response rating, Velvetleaf",velvetleaf; [14],50
same,Velvetleaf plant response rating,velvetleaf; [15],50
same,Velvetleaf plant response rating,velvetleaf; [16],30
same,Ducksalad plant response rating,"ducksalad [6]; 62 g ai/ha, scale 0 to 100",0
same,Ducksalad plant response rating,ducksalad [6]; [10],10
same,Ducksalad plant response rating,ducksalad [6]; [11],35
same,"Plant response rating, Ducksalad",ducksalad [6]; [12],40
same,Rice plant response rating,"rice [7]; 62 g ai/ha, scale 0 to 100",0
same,Rice plant response rating,rice [7]; [10],0
same,Rice plant response rating,rice [7]; [11],45
same,"Plant response rating, Rice",rice [7]; [12],50
same,Barnyardgrass plant response rating,barnyardgrass [8],70
same,Morningglory plant response rating,morningglory; [13],10
same,"Plant response rating, Morningglory",morningglory; [14],25
same,Morningglory plant response rating,morningglory; [15],70
same,Morningglory plant response rating,morningglory; [16],30
same,"Crabgrass, Large plant response rating",large crabgrass; [13],20
same,"Plant response rating, Crabgrass, Large",large crabgrass; [14],40
same,"Crabgrass, Large plant response rating",large crabgrass; [15],55
same,"Crabgrass, Large plant response rating",large crabgrass; [16],35
same,Ducksalad plant response rating,ducksalad [9],80
